Source: US7705188B2 (Arizona Board of Regents, a body corporate of the State of …, priority 2002, dated 2010)
≈ marks a conversion by molar mass, not a printed value. Where two headings read alike, the source gives them in different places.

Experiments:
NCI-H460 = assay: Cytotoxicity, lung-NSC NCI-H460; format: cell-based, human
BXPC-3 = assay: Cytotoxicity, pancreas-a BXPC-3; format: cell-based, human
SF-268 = assay: Cytotoxicity, CNS SF-268; format: cell-based, human
MCF-7 = assay: Cytotoxicity, breast MCF-7; format: cell-based, human
DU-145 = assay: Cytotoxicity, prostate DU-145; format: cell-based, human
KM201.2 = assay: Cytotoxicity, colon KM201.2; format: cell-based, human; details: KM201.2
Micrococcus luteus = assay: Antimicrobial broth microdilution, MIC; format: cell-based
Excerpt: (§1) Stilbene production has been correlated with the resistance of grape leaves to fungal infection.

Streptococcus pneumoniae = assay: Antimicrobial broth microdilution, MIC; format: cell-based
Excerpt: as §1

Neisseria gonorrhoeae = assay: Antimicrobial broth microdilution, MIC; format: cell-based; details: Neisseria gonorrhoeae
Excerpt: as §1

Enterococcus faecalis = assay: Antimicrobial broth microdilution, MIC; format: cell-based; details: for MIC: read-out: Minimum inhibitory concentration
Excerpt: as §1

Enterobacter cloacae = assay: Antimicrobial broth microdilution, MIC; format: cell-based
Excerpt: as §1

Cryptococcus neoformans = assay: Antimicrobial broth microdilution, MIC; format: cell-based
Excerpt: as §1

[1] = system: Stenotrophomonas maltophilia; assay: Antimicrobial broth microdilution, MIC; format: cell-based
Excerpt: as §1

Escherichla coli = assay: Antimicrobial broth microdilution, MIC; format: cell-based; details: Escherichla coli
Excerpt: as §1

Candida albicans = assay: Antimicrobial broth microdilution, MIC; format: cell-based
Excerpt: as §1

Staphylococcus aureus = assay: Antimicrobial broth microdilution, MIC; format: cell-based
Excerpt: as §1

[2] = read-out: Minimum inhibitory concentration

Structure (SMILES): COc1cc(/C=C\c2ccccc2)cc(OC)c1OP(=O)(OCc1ccccc1)OCc1ccccc1 [Compound 14m, (Z)-3,5-dimethoxy-4-[O-bis(benzyl)phosphoryl]-stilbene]
- Lung-NSC NCI-H460 GI50 (NCI-H460): 10.7 µg/mL
- Pancreas-a BXPC-3 GI50 (BXPC-3): 5.4 µg/mL
- CNS SF-268 GI50 (SF-268): 38.5 µg/mL
- Breast MCF-7 GI50 (MCF-7): 9.0 µg/mL
- Prostate DU-145 GI50 (DU-145): 35.6 µg/mL
- Colon KM201.2 GI50 (KM201.2): 24.7 µg/mL

Structure (SMILES): COc1ccc(C(O)c2cc(OC)cc(OC)c2)cc1 (stereo not drawn) [Compound 15a]
- Lung-NSC NCI-H460 GI50 (NCI-H460): 21.7 µg/mL
- Pancreas-a BXPC-3 GI50 (BXPC-3): 16.1 µg/mL
- CNS SF-268 GI50 (SF-268): 23.3 µg/mL
- Prostate DU-145 GI50 (DU-145): 23.2 µg/mL
- Colon KM201.2 GI50 (KM201.2): 21.0 µg/mL

Structure (SMILES): COc1cc(OC)cc(C(O)c2ccc(O)cc2)c1 (stereo not drawn) [Compound 15c, 4′-Hydroxy-3,5-dimethoxybenzhydrol]
- GI50 (NCI-H460; Homo sapiens, NCI-H460, NCI-H460, read-out: Lung-NSC NCI-H460 GI50): 2.3 µg/mL (≈ 8.84 µM)
- GI50 (BXPC-3; Homo sapiens, BXPC-3, BXPC-3): 1.3 µg/mL (≈ 4.99 µM)
- GI50 (SF-268; Homo sapiens, SF-268, SF-268, read-out: CNS SF-268 GI50): 0.65 µg/mL (≈ 2.5 µM)
- MIC (Micrococcus luteus; [2]): > 64 µg/mL
- MIC (Streptococcus pneumoniae; [2]): 16 µg/mL (≈ 61.5 µM)
- MIC (Neisseria gonorrhoeae; [2]): 2 to 4 µg/mL (≈ 7.68 to 15.4 µM)
- MIC (Enterococcus faecalis; first line (r12)): > 64 µg/mL
- MIC (Enterococcus faecalis; second line (r15)): > 64 µg/mL
- MIC (Enterobacter cloacae; [2]): > 64 µg/mL
- MIC (Cryptococcus neoformans; [2]): > 64 µg/mL
- MIC [1, 2]: > 64 µg/mL
- MIC (Escherichla coli; [2]): > 64 µg/mL
- MIC (Candida albicans; [2]): > 64 µg/mL
- MIC (Staphylococcus aureus; [2]): > 64 µg/mL
- GI50 (MCF-7; Homo sapiens, MCF7): 2 µg/mL (≈ 7.68 µM)
- GI50 (DU-145; Homo sapiens, DU-145, DU-145): 5.8 µg/mL (≈ 22.3 µM)
- GI50 (KM201.2; Homo sapiens, read-out: Colon KM201.2 GI50): 5.3 µg/mL (≈ 20.4 µM)

Structure (SMILES): COc1cc(OC)cc(C(=O)c2ccc(O)cc2)c1 [Compound 16c]
- Lung-NSC NCI-H460 GI50 (NCI-H460): 3.0 µg/mL
- Pancreas-a BXPC-3 GI50 (BXPC-3): 4.0 µg/mL
- CNS SF-268 GI50 (SF-268): 3.8 µg/mL
- Minimum inhibitory concentration (Micrococcus luteus): * (no inhibition at 64 μg/ml)
- Minimum inhibitory concentration (Streptococcus pneumoniae): 64 µg/mL (≈ 248 µM)
- Minimum inhibitory concentration (Neisseria gonorrhoeae): 32 to 64 µg/mL
- Minimum inhibitory concentration (Enterococcus faecalis; first line (r12)): * (no inhibition at 64 μg/ml)
- Minimum inhibitory concentration (Enterococcus faecalis; second line (r15)): * (no inhibition at 64 μg/ml)
- Minimum inhibitory concentration (Enterobacter cloacae): * (no inhibition at 64 μg/ml)
- Minimum inhibitory concentration (Cryptococcus neoformans): * (no inhibition at 64 μg/ml)
- Minimum inhibitory concentration [1]: * (no inhibition at 64 μg/ml)
- Minimum inhibitory concentration (Escherichla coli): * (no inhibition at 64 μg/ml)
- Minimum inhibitory concentration (Candida albicans): * (no inhibition at 64 μg/ml)
- Minimum inhibitory concentration (Staphylococcus aureus): * (no inhibition at 64 μg/ml)
- Breast MCF-7 GI50 (MCF-7): 2.2 µg/mL
- Prostate DU-145 GI50 (DU-145): 4.1 µg/mL
- Colon KM201.2 GI50 (KM201.2): 3.6 µg/mL
